Measured values as given in ChEMBL document CHEMBL3885881, “DrugMatrix”.
Values joined by “and” are separate entries in the source; they are usually repeats but may differ in a detail not shown here. Equal entries are not always repeated.

Species: Rattus norvegicus
Test: DrugMatrix - Regimen: Daily Repeat
Assay type: toxicity, organism-based, Sprague-Dawley
Set-up: regimen Daily Repeat, gender Male, age 6-8 weeks
Details: in vivo, ip, route intraperitoneal, vehicle 100 % SALINE; for ABSOLUTE BASOPHIL / ABSOLUTE EOSINOPHIL / ABSOLUTE LYMPHOCYTE / ABSOLUTE MONOCYTE / ABSOLUTE SEGMENTED NEUTROPHIL / BASOPHIL / EOSINOPHIL / ERYTHROCYTE COUNT / HEMATOCRIT / HEMOGLOBIN / LEUKOCYTE COUNT / LYMPHOCYTE / MEAN CORPUSCULAR HEMOGLOBIN / MEAN CORPUSCULAR HEMOGLOBIN CONCENTRATION / MEAN CORPUSCULAR VOLUME / MONOCYTE / NEUTROPHIL / PLATELET COUNT: tissue Blood; for ALANINE AMINOTRANSFERASE / ALBUMIN / ALKALINE PHOSPHATASE / ASPARTATE AMINOTRANSFERASE / BLOOD UREA NITROGEN / CARBON DIOXIDE / CHOLESTEROL / CREATINE PHOSPHOKINASE / CREATININE / GLUCOSE / LACTATE DEHYDROGENASE / LIPASE / PHOSPHORUS / POTASSIUM / SODIUM / TOTAL BILIRUBIN / TOTAL PROTEIN / URIC ACID / CHLORIDE: tissue Plasma
[1] = 0 mg/kg, 120 h, dose level Control, time 5 day
[2] = 0 mg/kg, […], dose level Control, time 14 day
[3] = 0 mg/kg, […], dose level Control, time 28 day
[4] = 8 mg/kg, 120 h, dose level High, time 5 day
[5] = 8 mg/kg, […], dose level High, time 14 day
[6] = 8 mg/kg, […], dose level High, time 28 day

Substance: GOLD SODIUM THIOMALATE
- ABSOLUTE BASOPHIL [1]: 32 cells/µL
- ABSOLUTE EOSINOPHIL [1]: 110 cells/µL
- ABSOLUTE LYMPHOCYTE [1]: 6630 cells/µL
- ABSOLUTE MONOCYTE [1]: 140 cells/µL
- ABSOLUTE SEGMENTED NEUTROPHIL [1]: 1170 cells/µL
- BASOPHIL [1]: 0.38% and 0.35%
- EOSINOPHIL [1]: 1.28% and 0.62%
- ERYTHROCYTE COUNT [1]: 7.45 x10E6/uL and 7.26 x10E6/uL
- HEMATOCRIT [1]: 45.74% and 47.97%
- HEMOGLOBIN [1]: 14.72 G/DL and 15.38 G/DL
- LEUKOCYTE COUNT [1]: 8.11 x10E3/uL and 8.68 x10E3/uL
- LYMPHOCYTE [1]: 81.3% and 86.77%
- MEAN CORPUSCULAR HEMOGLOBIN [1]: 19.76 pg and 21.18 pg
- MEAN CORPUSCULAR HEMOGLOBIN CONCENTRATION [1]: 32.16 G/DL and 32.05 G/DL
- MEAN CORPUSCULAR VOLUME [1]: 61.38 fL and 66.15 fL
- MONOCYTE [1]: 1.76% and 1.57%
- NEUTROPHIL [1]: 14.9% and 9.53%
- PLATELET COUNT [1]: 1322.4 x10E3/uL and 1786 x10E3/uL
- ALANINE AMINOTRANSFERASE [1]: 25.8 u/L and 20.5 u/L
- ALBUMIN [1]: 3.64 G/DL and 4.35 G/DL
- ALKALINE PHOSPHATASE [1]: 300 u/L
- ASPARTATE AMINOTRANSFERASE [1]: 81.4 u/L and 86.75 u/L
- BLOOD UREA NITROGEN [1]: 14.4 mg/dL and 17 mg/dL
- CARBON DIOXIDE [1]: 29 mmol/L
- CHOLESTEROL [1]: 69.2 mg/dL and 51.25 mg/dL
- CREATINE PHOSPHOKINASE [1]: 303.2 u/L and 384.75 u/L
- CREATININE [1]: 0.56 mg/dL and 0.47 mg/dL
- GLUCOSE [1]: 125.4 mg/dL and 128.75 mg/dL
- LACTATE DEHYDROGENASE [1]: 105.4 u/L and 145 u/L
- LIPASE [1]: 22.4 u/L and 13.25 u/L
- PHOSPHORUS [1]: 11.8 mg/dL
- POTASSIUM [1]: 5.52 MEQ/L and 6.58 MEQ/L
- SODIUM [1]: 147 MEQ/L and 151 MEQ/L
- TOTAL BILIRUBIN [1]: 0.2 mg/dL and 0.33 mg/dL
- TOTAL PROTEIN [1]: 6.1 G/DL and 6.53 G/DL
- URIC ACID [1]: 1.06 mg/dL and 1.95 mg/dL
- ABSOLUTE BASOPHIL [2]: 130 cells/µL
- ABSOLUTE EOSINOPHIL [2]: 140 cells/µL
- ABSOLUTE LYMPHOCYTE [2]: 13500 cells/µL
- ABSOLUTE MONOCYTE [2]: 400 cells/µL
- ABSOLUTE SEGMENTED NEUTROPHIL [2]: 2330 cells/µL
- HEMATOCRIT [2]: 45.98%
- HEMOGLOBIN [2]: 15.17 G/DL
- MEAN CORPUSCULAR VOLUME [2]: 59.4 fL
- NEUTROPHIL [2]: 14.14%
- ABSOLUTE BASOPHIL [3]: 91 cells/µL
- ABSOLUTE EOSINOPHIL [3]: 110 cells/µL
- ABSOLUTE LYMPHOCYTE [3]: 9910 cells/µL
- ABSOLUTE MONOCYTE [3]: 210 cells/µL
- ABSOLUTE SEGMENTED NEUTROPHIL [3]: 1560 cells/µL
- BASOPHIL [3]: 0.77%
- EOSINOPHIL [3]: 0.92%
- ERYTHROCYTE COUNT [3]: 8.21 x10E6/uL
- HEMATOCRIT [3]: 47.53%
- HEMOGLOBIN [3]: 15.65 G/DL
- LEUKOCYTE COUNT [3]: 11.91 x10E3/uL
- LYMPHOCYTE [3]: 83.34%
- MEAN CORPUSCULAR HEMOGLOBIN [3]: 19.07 pg
- MEAN CORPUSCULAR HEMOGLOBIN CONCENTRATION [3]: 32.93 G/DL
- MEAN CORPUSCULAR VOLUME [3]: 57.9 fL
- MONOCYTE [3]: 1.68%
- NEUTROPHIL [3]: 12.97%
- PLATELET COUNT [3]: 1323.8 x10E3/uL
- ALBUMIN [2]: 3.66 G/DL
- CARBON DIOXIDE [2]: 25 mmol/L
- CHLORIDE [2]: 107 MEQ/L
- CREATINE PHOSPHOKINASE [2]: 410.25 u/L
- SODIUM [2]: 149.2 MEQ/L
- URIC ACID [2]: 0.94 mg/dL
- ALANINE AMINOTRANSFERASE [3]: 30 u/L
- ALBUMIN [3]: 3.71 G/DL
- ALKALINE PHOSPHATASE [3]: 186.8 u/L
- ASPARTATE AMINOTRANSFERASE [3]: 78.2 u/L
- BLOOD UREA NITROGEN [3]: 14.2 mg/dL
- CHOLESTEROL [3]: 44.9 mg/dL
- CREATINE PHOSPHOKINASE [3]: 334.3 u/L
- CREATININE [3]: 0.6 mg/dL
- GLUCOSE [3]: 147.2 mg/dL
- LACTATE DEHYDROGENASE [3]: 123.1 u/L
- LIPASE [3]: 9.6 u/L
- PHOSPHORUS [3]: 10.01 mg/dL
- POTASSIUM [3]: 6.57 MEQ/L
- SODIUM [3]: 149.5 MEQ/L
- TOTAL BILIRUBIN [3]: 0.21 mg/dL
- TOTAL PROTEIN [3]: 6.66 G/DL
- URIC ACID [3]: 1.26 mg/dL
- ABSOLUTE BASOPHIL [4]: 130 cells/µL
- ABSOLUTE EOSINOPHIL [4]: 56 cells/µL
- ABSOLUTE LYMPHOCYTE [4]: 9210 cells/µL
- ABSOLUTE MONOCYTE [4]: 260 cells/µL
- ABSOLUTE SEGMENTED NEUTROPHIL [4]: 1220 cells/µL
- BASOPHIL [4]: 1.14% and 0.55%
- EOSINOPHIL [4]: 0.52% and 0.85%
- ERYTHROCYTE COUNT [4]: 7.23 x10E6/uL and 7.38 x10E6/uL
- HEMATOCRIT [4]: 44.18% and 47.65%
- LEUKOCYTE COUNT [4]: 10.96 x10E3/uL and 5.99 x10E3/uL
- LYMPHOCYTE [4]: 83.86% and 79.83%
- MEAN CORPUSCULAR HEMOGLOBIN [4]: 19.96 pg and 20.48 pg
- MEAN CORPUSCULAR HEMOGLOBIN CONCENTRATION [4]: 32.6 G/DL and 31.73 G/DL
- MEAN CORPUSCULAR VOLUME [4]: 64.58 fL
- MONOCYTE [4]: 2.34% and 2.35%
- NEUTROPHIL [4]: 11.32% and 14.95%
- PLATELET COUNT [4]: 1423.2 x10E3/uL and 1443.75 x10E3/uL
- ALANINE AMINOTRANSFERASE [4]: 32.8 u/L and 21 u/L
- ALBUMIN [4]: 3.28 G/DL
- ALKALINE PHOSPHATASE [4]: 176.2 u/L and 278.5 u/L
- ASPARTATE AMINOTRANSFERASE [4]: 100.4 u/L and 71 u/L
- BLOOD UREA NITROGEN [4]: 18.2 mg/dL and 15.25 mg/dL
- CARBON DIOXIDE [4]: 27 mmol/L
- CHLORIDE [4]: 106.6 MEQ/L and 106.75 MEQ/L
- CHOLESTEROL [4]: 68.4 mg/dL and 52.25 mg/dL
- CREATINE PHOSPHOKINASE [4]: 159.5 u/L and 253 u/L
- CREATININE [4]: 0.52 mg/dL and 0.45 mg/dL
- GLUCOSE [4]: 124.5 mg/dL
- LACTATE DEHYDROGENASE [4]: 57.5 u/L and 107.5 u/L
- LIPASE [4]: 28.8 u/L and 9.75 u/L
- PHOSPHORUS [4]: 9.6 mg/dL and 11.85 mg/dL
- POTASSIUM [4]: 5.78 MEQ/L and 5.65 MEQ/L
- SODIUM [4]: 150.8 MEQ/L and 151.5 MEQ/L
- TOTAL BILIRUBIN [4]: 0.18 mg/dL and 0.32 mg/dL
- TOTAL PROTEIN [4]: 5.68 G/DL and 6.25 G/DL
- URIC ACID [4]: 1.38 mg/dL and 2.12 mg/dL
- ABSOLUTE BASOPHIL [5]: 34 cells/µL
- ABSOLUTE EOSINOPHIL [5]: 82 cells/µL
- ABSOLUTE LYMPHOCYTE [5]: 8830 cells/µL
- ABSOLUTE MONOCYTE [5]: 250 cells/µL
- ABSOLUTE SEGMENTED NEUTROPHIL [5]: 1460 cells/µL
- MEAN CORPUSCULAR HEMOGLOBIN [5]: 20.12 pg
- ABSOLUTE BASOPHIL [6]: 110 cells/µL
- ABSOLUTE EOSINOPHIL [6]: 71 cells/µL
- ABSOLUTE LYMPHOCYTE [6]: 9610 cells/µL
- ABSOLUTE MONOCYTE [6]: 180 cells/µL
- ABSOLUTE SEGMENTED NEUTROPHIL [6]: 1180 cells/µL
- BASOPHIL [6]: 0.95%
- EOSINOPHIL [6]: 0.64%
- ERYTHROCYTE COUNT [6]: 7.92 x10E6/uL
- HEMATOCRIT [6]: 45.49%
- LEUKOCYTE COUNT [6]: 11.2 x10E3/uL
- LYMPHOCYTE [6]: 85.54%
- MEAN CORPUSCULAR HEMOGLOBIN [6]: 18.71 pg
- MEAN CORPUSCULAR HEMOGLOBIN CONCENTRATION [6]: 32.56 G/DL
- MEAN CORPUSCULAR VOLUME [6]: 57.51 fL
- MONOCYTE [6]: 1.65%
- NEUTROPHIL [6]: 10.78%
- PLATELET COUNT [6]: 1410.8 x10E3/uL
- CARBON DIOXIDE [5]: 25 mmol/L
- CHLORIDE [5]: 108.6 MEQ/L
- ALANINE AMINOTRANSFERASE [6]: 33.3 u/L
- ALBUMIN [6]: 3.51 G/DL
- ALKALINE PHOSPHATASE [6]: 144.9 u/L
- ASPARTATE AMINOTRANSFERASE [6]: 73.8 u/L
- BLOOD UREA NITROGEN [6]: 12.7 mg/dL
- CHLORIDE [6]: 107.3 MEQ/L
- CHOLESTEROL [6]: 48.9 mg/dL
- CREATINE PHOSPHOKINASE [6]: 237.4 u/L
- CREATININE [6]: 0.61 mg/dL
- GLUCOSE [6]: 141.1 mg/dL
- LACTATE DEHYDROGENASE [6]: 100.8 u/L
- LIPASE [6]: 13.2 u/L
- PHOSPHORUS [6]: 9.57 mg/dL
- POTASSIUM [6]: 6.28 MEQ/L
- SODIUM [6]: 150 MEQ/L
- TOTAL BILIRUBIN [6]: 0.2 mg/dL
- TOTAL PROTEIN [6]: 6.4 G/DL
- URIC ACID [6]: 1.22 mg/dL
